Test [1] concerns wildtype Wnt signaling cascade. Nature of the test: HEK293 TOP assay (Super TopFlash luciferase reporter, Wnt-3a stimulated). It counts as cell-based. The following applies: Homo sapiens, HEK293, 16 h, HEK293 TOP reporter cells, Wnt3a at EC50, 16 hours. An excerpt:
7.1 Measurement of the Inhibitory Activity of Selected Compounds on the Wildtype Wnt Signaling Cascade: HEK293 TOP/FOP Assay
In order to discover and characterize small molecules which inhibit the wildtype Wnt pathway, a cellular reporter assay was employed. The corresponding assay cell was generated by transfection of the mammalian cell line HEK293 (ATCC, #CRL-1573) with the Super TopFlash vector (Morin, Science 275, 1997, 1787-1790; Molenaar et al., Cell 86 (3), 1996, 391-399). The HEK293 cell line is cultivated at 37° C. and 5% CO2 in DMEM (Life Technologies, #41965-039), supplemented with 2 mM glutamine, 20 mM HEPES, 1.4 mM pyruvate, 0.15% Na-bicarbonate and 10% foetal bovine serum (GIBCO, #10270). Stable transfectants were generated by selection with 300 μg/ml Hygromycin.
(§1) In preparation of the assay, the two cell lines were plated 24 h before beginning the test at 10000 cells per well in a 384 micro titre plate (MTP) in 30 μl growth medium. […] The recombinant human Wnt-3a was thereby applied between 2500 and 5 ng/ml in two-fold dilution steps.
(§2) Selective inhibitory activity for small molecules on the wildtype Wnt pathway was determined after parallel incubation of both (TOP and FOP) HEK293 reporter cell lines with a compound dilution series from 50 μM to 15 nM in steps of 3.16-fold dilutions in CAFTY buffer (130 mM sodium chloride, 5 mM potassium chloride, 20 mM HEPES, 1 mM magnesium chloride, 5 mM sodium bicarbonate, pH 7.4) containing 2 mM Ca^2+ and 0.01% BSA.
(§3) The compounds were thereby serially prediluted in 100% DMSO and thereafter 50 fold into the CAFTY compound dilution buffer (described above).

The test system of test [2] is HEK293 cells cotransfected with the FOP control vector. Description: HEK293 FOP assay (control reporter with non-functional TCF elements). It counts as cell-based. The following applies: Homo sapiens, 16 hours. Here is the method: In a parallel approach, HEK293 cells were cotransfected with the FOP control vector and pcDNA3. The FOP vector is identical to the TOP construct, but it contains instead of functional TCF elements a randomized, non-functional sequence. For this transfection a stable transfected cell line was generated as well, based on selection with Geneticin (1 mg/ml).
as §1, §2, §3

A further test has as its target T1, TNKS2 (Homo sapiens, UniProt Q9H2K2).
T1 construct: purchased BPS Bioscience, San Diego, USA 80572 (TNKS2 Histone Ribosylation Assay Kit)
T1 sequence (Q9H2K2 1-1166): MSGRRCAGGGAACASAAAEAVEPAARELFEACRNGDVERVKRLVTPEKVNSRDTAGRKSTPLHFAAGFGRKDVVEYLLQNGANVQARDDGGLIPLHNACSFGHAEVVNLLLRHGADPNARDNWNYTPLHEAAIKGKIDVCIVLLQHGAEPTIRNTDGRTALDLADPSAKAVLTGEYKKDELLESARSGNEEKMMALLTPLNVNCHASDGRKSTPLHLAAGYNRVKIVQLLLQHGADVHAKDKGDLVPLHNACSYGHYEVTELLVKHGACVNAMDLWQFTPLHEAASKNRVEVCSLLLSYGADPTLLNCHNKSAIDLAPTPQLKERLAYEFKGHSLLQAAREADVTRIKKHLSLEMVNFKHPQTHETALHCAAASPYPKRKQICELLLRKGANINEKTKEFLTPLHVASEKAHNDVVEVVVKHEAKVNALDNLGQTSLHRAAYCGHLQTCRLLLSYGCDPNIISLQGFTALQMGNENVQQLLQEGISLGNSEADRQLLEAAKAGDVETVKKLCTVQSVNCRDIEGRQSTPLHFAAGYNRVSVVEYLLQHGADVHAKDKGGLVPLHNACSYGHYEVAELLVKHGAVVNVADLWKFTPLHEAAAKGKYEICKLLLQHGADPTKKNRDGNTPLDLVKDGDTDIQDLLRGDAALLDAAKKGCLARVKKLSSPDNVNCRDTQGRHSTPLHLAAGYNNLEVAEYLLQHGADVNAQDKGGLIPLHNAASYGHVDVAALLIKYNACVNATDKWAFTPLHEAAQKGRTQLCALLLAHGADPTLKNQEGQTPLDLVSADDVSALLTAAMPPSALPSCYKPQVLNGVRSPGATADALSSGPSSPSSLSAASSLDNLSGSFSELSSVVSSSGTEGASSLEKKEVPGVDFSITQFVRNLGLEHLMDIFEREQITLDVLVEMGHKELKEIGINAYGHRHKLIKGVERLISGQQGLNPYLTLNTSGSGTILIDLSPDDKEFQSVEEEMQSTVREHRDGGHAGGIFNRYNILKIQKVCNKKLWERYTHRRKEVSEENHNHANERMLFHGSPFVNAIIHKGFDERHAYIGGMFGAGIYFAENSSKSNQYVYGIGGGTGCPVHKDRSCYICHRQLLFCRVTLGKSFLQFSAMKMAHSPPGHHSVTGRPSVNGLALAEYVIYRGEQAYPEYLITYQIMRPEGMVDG
Nature of the test: TNKS2 Assay B (auto-parsylation, [3H]-NAD+ SPA). The class given is biochemical. The conditions noted are these: 6 nM TNKS2, auto-parsylation, over night at room temperature. Here is the method:
The potency of selected compounds according to the invention was assessed applying a modified in vitro inhibition assay. Here, the TNKS2 catalyzed NAD^+-dependent ribosylation of the enzyme itself (auto-parsylation) was detected using [^3H]-NAD^+ as substrate and applying the scintillation proximity assay (SPA) method to detect tritium-labeled, parsylated TNKS2. The intensity of the readout signal is proportional to the incorporated [^3H]-NAD^+. Inhibition of TNKS2 leads to a decreased incorporation of [^3H]-NAD^+ and consequently to a lower readout signal intensity. The concentration of a test compound which inhibits the enzyme activity by 50% (corresponds to half of the normed readout signal intensity) is reported as IC50.
Protocol Auto-Parsylation Assay
The assay was conducted in a 96 well MTP format with the identical TNKS2 enzyme sample and NAD^+ sample as in the histone ribosylation assay with the following modifications: TNKS2 enzyme sample was diluted with a modified assay buffer (50 mM MES pH 7.0, 1 mM DTT, 0.01% Triton X-100) to a final concentration of 6 nM TNKS2 and 10×NAD^+ solution was diluted with the modified assay buffer (s. above) to a final 0.445×NAD^+ solution doped with 100 Bq/μl [^3H]-NAD^+[Catalog #NET443H050UC, Perkin Elmer, Waltham, Mass., USA]. Substrate solution (10 μl) was incubated with different test compound concentrations (2.5 μl in 10% DMSO in modified assay buffer) or control (2.5 μl 10% DMSO in modified assay buffer only) and enzyme (10 μl) over night at room temperature. Incorporated tritium was measured after addition of 50 ul SPA beads (1 mg/ml) [Catalog #RPNQ0095 20 mg/ml, Perkin Elmer, Waltham, Mass., USA; diluted 1:10 with Dulbecco's phosphate buffered saline, PBS Catalog #D8537, Sigma-Aldrich, Steinheim, Germany] and detection of the photon emission with a beta count plate reader [Wallac MicroBeta®, Perkin Elmer, Waltham, Mass., USA].

What is called IC50 is the midpoint of a concentration-inhibition curve. A lower IC50 goes with greater potency.

Molecules are shown by their SMILES.

`O=C(N[C@H]1CC[C@@]2(CCN(c3ccc(F)cc3Cl)C2=O)CC1)c1[nH]cnc1C(=O)N1CC(F)(F)C1` [Example 189, N-[(trans)-2-(2-chloro-4-fluorophenyl)-1-oxo-2-azaspiro[4.5]dec-8-yl]-4-[(3,3-difluoroazetidin-1-yl)carbonyl]-1H-imidazole-5-carboxamide]: the values for the 50% inhibitory concentration (IC50) (in test [1]; in test [2]; against TNKS2) were 0.3 nM, 9800 nM and 5.6 nM, respectively.
As to `O=C(N[C@H]1CC[C@@]2(CCN(c3ccccc3Cl)C2=O)CC1)c1n[nH]c2cccnc12` [Example 272, N-[(trans)-2-(2-chlorophenyl)-1-oxo-2-azaspiro[4.5]dec-8-yl]-1H-pyrazolo[4,3-b]pyridine-3-carboxamide], the IC50 in test [1] was 200 nM; in test [2] it was no less than 50000 nM; against TNKS2, 640 nM.
Take `Cc1cc(N2CCC[C@]3(CC[C@@H](NC(=O)c4[nH]cnc4C(=O)NCCN4CCC(C)CC4)CC3)C2=O)c(Cl)cc1F` [Example 312, N^5-[(trans)-2-(2-chloro-4-fluoro-5-methylphenyl)-1-oxo-2-azaspiro[5.5]undec-9-yl]-N^4-[2-(4-methylpiperidin-1-yl)ethyl]-1H-imidazole-4,5-dicarboxamide]: the IC50 was 24 nM in test [1], no less than 500 nM in test [2] and 4.1 nM against TNKS2.
In the case of `O=C(N[C@H]1CC[C@@]2(CCN(c3ccc(F)cc3Cl)C2=O)CC1)c1c[nH]c2nccnc12` [Example 350, N-[(trans)-2-(2-chloro-4-fluorophenyl)-1-oxo-2-azaspiro[4.5]dec-8-yl]-5H-pyrrolo[2,3-b]pyrazine-7-carboxamide], the results for the IC50 (in test [1]; in test [2]; at TNKS2) were 1.2 nM, no less than 50000 nM and 20 nM, respectively.
Take `CCNC(=O)c1nc[nH]c1C(=O)N[C@H]1CC[C@@]2(CCCN(c3cc(C)c(F)cc3Cl)C2=O)CC1` [Example 305, N^5-[(trans)-2-(2-chloro-4-fluoro-5-methylphenyl)-1-oxo-2-azaspiro[5.5]undec-9-yl]-N^4-ethyl-1H-imidazole-4,5-dicarboxamide]: the IC50 is 8.1 nM in test [1], no less than 500 nM in test [2] and 65 nM against TNKS2.
The corresponding values for `O=C(N[C@H]1CC[C@@]2(CCCN(c3ccc(F)cc3Cl)C2=O)CC1)c1cnc2cccnn12` [Example 326, N-[(trans)-2-(2-chloro-4-fluorophenyl)-1-oxo-2-azaspiro[5.5]undec-9-yl]imidazo[1,2-b]pyridazine-3-carboxamide] are 60 nM, no less than 50000 nM and 180 nM.
For `O=C(N[C@H]1CC[C@@]2(CCN(c3ccccc3)C2=O)CC1)c1cnn2cccnc12` [Example 238, N-[(trans)-1-oxo-2-phenyl-2-azaspiro[4.5]dec-8-yl]pyrazolo[1,5-a]pyrimidine-3-carboxamide], the IC50 was 43 nM in test [1], no less than 500 nM in test [2] and 400 nM against TNKS2.
In the case of `O=C(N[C@H]1CC[C@@]2(CCN(c3ccc(F)cc3Cl)C2=O)CC1)c1[nH]cnc1C(=O)N1CC2(COC2)C1` [Example 194, N-[(trans)-2-(2-chloro-4-fluorophenyl)-1-oxo-2-azaspiro[4.5]dec-8-yl]-4-(2-oxa-6-azaspiro[3.3]hept-6-ylcarbonyl)-1H-imidazole-5-carboxamide], the values for the IC50 (in test [1]; in test [2]; on TNKS2) were 1.5 nM, no less than 50000 nM and 4.8 nM, respectively.
The corresponding values for `Cc1cc(N2CCC[C@]3(CC[C@@H](NC(=O)c4[nH]cnc4C(N)=O)CC3)C2=O)c(Cl)cc1F` [Example 309, N^5-[(trans)-2-(2-chloro-4-fluoro-5-methylphenyl)-1-oxo-2-azaspiro[5.5]undec-9-yl]-1H-imidazole-4,5-dicarboxamide] are 100 nM, no less than 50000 nM and 45 nM.
In the case of `O=C(N[C@H]1CC[C@@]2(CCCN(c3ccc(F)cc3Cl)C2=O)CC1)c1cnn2cccnc12` [Example 325, N-[(trans)-2-(2-chloro-4-fluorophenyl)-1-oxo-2-azaspiro[5.5]undec-9-yl]pyrazolo[1,5-a]pyrimidine-3-carboxamide], the values for the IC50 (in test [1]; in test [2]; on TNKS2) were 23 nM, no less than 50000 nM and 100 nM, respectively.
For `Cc1cc(N2CCC[C@]3(CC[C@@H](NC(=O)c4[nH]cnc4C(=O)NC(C)C)CC3)C2=O)c(Cl)cc1F` [Example 310, N^5-[(trans)-2-(2-chloro-4-fluoro-5-methylphenyl)-1-oxo-2-azaspiro[5.5]undec-9-yl]-N^4-(propan-2-yl)-1H-imidazole-4,5-dicarboxamide], the values for the IC50 (in test [1]; in test [2]; against TNKS2) were 15 nM, 13000 nM and 270 nM, respectively.
In the case of `O=C(N[C@H]1CC[C@@]2(CCN(c3ccccc3Cl)C2=O)CC1)c1[nH]cnc1C(=O)N1CC2(COC2)C1` [Example 263, N-[(trans)-2-(2-chlorophenyl)-1-oxo-2-azaspiro[4.5]dec-8-yl]-4-(2-oxa-6-azaspiro[3.3]hept-6-ylcarbonyl)-1H-imidazole-5-carboxamide], the IC50 in test [1] is 2.7 nM; in test [2], no less than 50000 nM; against TNKS2, 11 nM.

The values above are taken from patent US20180148418A1, “AMIDO-SUBSTITUTED CYCLOHEXANE DERIVATIVES” (Bayer Pharma Aktiengesellschaft, priority 2015, published 2018).
